Assay results as given in US8318947B2, “Comestible compositions comprising high potency savory flavorants, and processes for producing them” (Senomyx, Inc., priority 2006, dated 2012).

Key:
[1] = system: human panelists, savory taste; assay: Savory taste test with trained human panel (difference from reference); assay type: in vivo
Experimental: General Panelist Selection: Basic screening of sensory taste testers: Potential panelists were tested for their abilities to rank and rate intensities of solutions representing the five basic tastes. Panelists ranked and rated intensity of five different concentrations of each of the five following compounds: sucrose (sweet), sodium chloride (salty), citric acid (sour), caffeine (bitter), and monosodium glutamate (savory). In order to be selected for participation in testing, panelists needed to correctly rank and rate samples for intensity, with a reasonable number of errors.
Preliminary Taste Tests: The panelists selected in the above procedure were deemed qualified for performing Preliminary Taste Testing procedures. The preliminary taste tests are used to evaluate new compounds for intensity of basic tastes and off-tastes. A small group of panelists (n=5) taste approximately 5 concentrations of the compound (range typically between 1-100 μM, in half-log cycles, e.g., 1, 3, 10, 30, and 100 μM) in water and in a solution of 12 mM MSG to evaluate enhancement. Panelists rate the five basic tastes (sweet, salty, sour, bitter, and savory) as well as off-tastes (such as chemical, metallic, sulfur) on a labeled magnitude scale. Samples are served in 10 mL portions at room temperature. The purpose of the test is to determine the highest concentration at which there is no objectionable off-taste, and determine if obvious savory taste or enhancement of savory taste exists at any of the concentrations tested.
Trained Panelist Selection: A trained expert panel was used to further evaluate compounds that had been tested with the preliminary taste test.
Panelists for the trained panel were selected from the larger group of qualifying taste panelists. Panelists were further trained on savory taste by ranking and rating experiments using MSG and IMP combinations. Panelists completed a series of ranking, rating, and difference from reference tests with savory solutions. In ranking and rating experiments, panelists evaluated easy MSG concentrations (0, 6, 18, 36 mM) and more difficult MSG concentrations (3, 6, 12, 18 mM MSG) in water.
Compound testing with Trained Panel: Compounds tested by the trained panel were evaluated in difference from reference experiments. […] Test samples were solutions with varying amounts of MSG, IMP, and the compound. Typically, each session compares the reference sample to numerous test samples. […] Compounds were tested against the reference in samples with and without 12 mM MSG. All samples were presented in 10 ml volumes at room temperature. Two sessions were completed for each compound tested to evaluate panel reproducibility.

[2] = system: human subjects, savory taste; assay: Human taste test of low sodium tomato juice; assay type: in vivo; conditions: 3 μM cpd; 400 mg Na/8 oz tomato juice
Experimental: Human taste tests were conducted in order to evaluate the ability of the compounds of the invention to enhance the savory flavor of low sodium tomato juice (which naturally comprises some monosodium glutamate).
The final tomato juice samples for taste testing were prepared so as to comprise 90% (by volume) pre-made low sodium tomato juice stock (pH 4.2, 80˜100 mg Na/8 oz, 16 mM of naturally occurring MSG), 5% (by volume) of stock solutions formulated to produce selected final levels of sodium of final juice, and 5% (by volume) of a stock solution of the compound of the invention. Selected oxalamide compounds of the invention were dissolved in LSB (low sodium phosphate buffer), to provide a stock solution at 20 times the desired final concentration in the final tomato juice. The desired final sodium concentration of the final tomato juice was most experiments 73.6 mM (400 mg sodium in 8 oz. of juice), therefore a stock solution of NaCl was made at 1.48 M NaCl. The pH for the stock solutions was adjusted to 4.2 using a 1 M citric acid solution, and the stock solutions were sonicated to ensure the additive compounds were completely dissolved. […]
Scores were averaged across panelists and sessions, and evaluated using a 2-way ANOVA (factors: panelists and samples) and Duncan's multiple comparison test (alpha=0.05) to determine significant differences in intensity ratings.

melting point: 133.5 to 134 °C
SMILES: COc1cc(C)ccc1CNC(=O)C(=O)NCCc1ccc(C)cn1 [Example 30, N^1-(2-methoxy-4-methylbenzyl)-N^2-(2-(5-methylpyridin-2-yl)ethyl)oxalamide]
Taste Data: cpd concentration as strong as 12 mM MSG ([1]; compound alone, without MSG): 0.3 μM cpd as strong as
Taste Data: cpd concentration at which 12 mM MSG + cpd is as strong as 12 mM MSG + 100 μM IMP ([1]; with 12 mM MSG, reference 12 mM MSG + 100 μM IMP): 12 mM MSG + 0.3 μM cpd as
Enhancement of the savory taste of 16 mM glutamate (naturally existing) in low sodium tomato juice [2]: by 1.8 to 1.9-fold
